Experimental data taken from ChEMBL document CHEMBL1201862, “PubChem BioAssay data set” (2004).
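In this assay, cells in 96-well plates receive the compound at five concentrations for 48 hours. Endpoints are linearly interpolated between the surrounding concentrations. Abbreviation: GI50, concentration required for 50% inhibition of growth.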 The source made the active and inactive calls. Cut-off read from the data, not from the text of the source: active = GI50 up to about 1.1 µM and inactive = higher.

Key:
Assay in all cases: growth of human tumour cells (NCI), 48 h
CCRF-CEM = tested on: CCRF-CEM
UACC-257 = tested on: UACC-257
A498 = tested on: A498
SN12C = tested on: SN12C
SF-539 = tested on: SF-539
ACHN = tested on: ACHN
K562 = tested on: K562
IGROV-1 = tested on: IGROV-1
NCI-H522 = tested on: NCI-H522
Malme-3M = tested on: Malme-3M
UACC-62 = tested on: UACC-62
HOP-92 = tested on: HOP-92
SF-295 = tested on: SF-295
HCT-15 = tested on: HCT-15
UO-31 = tested on: UO-31
SNB-19 = tested on: SNB-19
HCT-116 = tested on: HCT-116

| SMILES | GI50 (CCRF-CEM) | GI50 (UACC-257) | GI50 (A498) | GI50 (SN12C) | GI50 (SF-539) | GI50 (ACHN) | GI50 (K562) | GI50 (IGROV-1) | GI50 (NCI-H522) | GI50 (Malme-3M) | GI50 (UACC-62) | GI50 (HOP-92) | GI50 (SF-295) | GI50 (HCT-15) [µM] | GI50 (UO-31) | GI50 (SNB-19) | GI50 (HCT-116) |
| --- | --- | --- | --- | --- | --- | --- | --- | --- | --- | --- | --- | --- | --- | --- | --- | --- | --- |
| O=C1CCC2(c3ccccc3)Nc3cc(Cl)ccc3N12 (configuration not stated) | 25.1 µM (inactive) | 24 µM (inactive) | 35.4 µM (inactive) | 35.1 µM (inactive) | 41.3 µM (inactive) | 26.9 µM (inactive) | 32 µM (inactive) | 41.2 µM (inactive) | 26.9 µM (inactive) | 25.8 µM (inactive) | 19 µM (inactive) | 13.7 µM (inactive) | 27.4 µM (inactive) | 35.2 | 25.5 µM (inactive) |  |  |
| O=C1C=C/C(=N\c2ccc3c(c2)C(Br)c2ccccc2-3)O1 (configuration not stated) | 26.8 µM (inactive) | > 100 µM (inactive) |  | 21.5 µM (inactive) | > 100 µM (inactive) | > 100 µM (inactive) | 42.8 µM (inactive) | > 100 µM (inactive) | 25.9 µM (inactive) | > 100 µM (inactive) | 61.5 µM (inactive) |  | > 100 µM (inactive) | > 100 | > 100 µM (inactive) | > 100 µM (inactive) | > 100 µM (inactive) |
| CN(C)CC1CCCC(CN(C)C)C1OC(=O)c1ccccc1 (configuration not stated) | > 100 µM (inactive) | > 100 µM (inactive) | > 100 µM (inactive) | > 100 µM (inactive) | > 100 µM (inactive) | > 100 µM (inactive) | > 100 µM (inactive) | > 100 µM (inactive) | > 100 µM (inactive) | > 100 µM (inactive) | > 100 µM (inactive) | > 100 µM (inactive) | > 100 µM (inactive) | > 100 | > 100 µM (inactive) |  | > 100 µM (inactive) |
| CC12CC3CC(C)(C1)CC(N=[N+]=[N-])(C3)C2 | > 100 µM (inactive) | > 100 µM (inactive) | > 100 µM (inactive) | > 100 µM (inactive) | > 100 µM (inactive) | > 100 µM (inactive) | > 100 µM (inactive) | > 100 µM (inactive) | > 100 µM (inactive) | > 100 µM (inactive) | > 100 µM (inactive) | > 100 µM (inactive) | > 100 µM (inactive) |  | > 100 µM (inactive) | > 100 µM (inactive) | > 100 µM (inactive) |
| CC(C)(C)c1cc(CCCCCCCC2(CCCCCCCc3cc(C(C)(C)C)cc(C(C)(C)C)c3)OC(COCCOCCCCCC#N)C(COCCOCCCCCC#N)O2)cc(C(C)(C)C)c1 (configuration not stated) | > 100 µM (inactive) | > 100 µM (inactive) | > 100 µM (inactive) | > 100 µM (inactive) |  | > 100 µM (inactive) | > 100 µM (inactive) | > 100 µM (inactive) | > 100 µM (inactive) | > 100 µM (inactive) | > 100 µM (inactive) | > 100 µM (inactive) | > 100 µM (inactive) | > 100 | > 100 µM (inactive) | > 100 µM (inactive) | > 100 µM (inactive) |
| ON/N=C/c1cc2c(cc1Br)OCO2 | > 386 µM (inactive) | > 386 µM (inactive) |  | > 386 µM (inactive) | > 386 µM (inactive) | > 386 µM (inactive) | > 386 µM (inactive) | > 386 µM (inactive) | 230 µM (inactive) | > 386 µM (inactive) | > 386 µM (inactive) | 144 µM (inactive) | > 386 µM (inactive) |  |  | > 386 µM (inactive) | > 386 µM (inactive) |
